The target of one test is human Nav1.7 (Homo sapiens (Human), UniProt Q15858). Nature of the test: FRET-based membrane potential assay, recombinant human sodium channel Nav1.7. The following applies: HEK293 cells stably expressing recombinant human Nav1.7; depolarization with veratridine (EC80) + scorpion venom. The format is cell-based. An outline of the steps:
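IC50 derived by four-parameter Hill fit of percent inhibition of depolarization, measured as peak F440-480/F565-625 ratio over baseline. Stable human Nav1.7 HEK293 cells, dye-loaded with CC2-DMPE and DiSBAC2(3)/VABSC-1 at room temperature, received compound 3 min ahead of veratridine (EC80) plus scorpion venom.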

Test [1] concerns MIA-induced osteoarthritic pain in rats. The test can be described thus: Osteoarthritic (OA) pain induced by sodium monoiodoacetate (MIA), hind limb grip force. The format is in vivo, rat. The following applies: male Sprague Dawley rats, grip force 20 days after MIA injection. Here is the method: Osteoarthritic (OA) Pain Induced by Sodium Monoiodoacetate (MIA)
Pain behavior was assessed by measurement of hind limb grip force (GF) in adult osteoarthritic rats. Male Sprague Dawley rats, obtained from Charles River Laboratories, (Wilmington, Mass.), weighing 150-175 g, were injected in the unilateral knee join with a single intra-articular injection of sodium monoiodoacetate (MIA, 3 mg/rat). All rats were tested at 20 days following MIA injection. A behavioral measure of activity-induced pain was carried out. Measurements of the peak hind limb grip force were conducted by recording the maximum compressive force (CFmax), in grams of force, exerted on a hind limb strain gauge setup, in a commercially available grip force measurement system (Columbus Instruments, Columbus, Ohio).
During testing, each rat was gently restrained by grasping it around its rib cage and then allowed to grasp the wire mesh frame attached to the strain gauge. The experimenter then moved the animal in a rostral-to-caudal direction until the grip was broken. Each rat was sequentially tested twice at an approximately 2-3 minute interval to obtain a raw mean grip force (CFmax). This raw mean grip force data was in turn converted to a maximum hindlimb cumulative compressive force (CFmax), as the grams of force/kg of body weight, for each animal.
For evaluating the compound effects, the hind limb grip force was conducted 20 days following the intra-articular injection of MIA. A group of age-matched nave (not injected with MIA) animals was added as a comparator to the drug-dosed groups. The vehicle control response for each group of MIA-treated animals was defined as the 0% response (0% effect), whereas the nave control group was defined as the normal response and as 100% effect. The % effect for each dose group was expressed as % return of response to normalcy, compared to the nave group. A percent maximal possible effect (% MPE) of testing compound was calculated according to the formula: (Treatment CFmax−Vehicle CFmax)/Vehicle CFmax]×100). Higher % effect numbers indicate increased relief from the pain in the model, with 100% indicating a return to the level of response seen in normal (non-osteoarthritic) animals. All experiments evaluating drug effects in this model were conducted in a randomized blinded fashion.
The animals were housed in Association for Assessment and Accreditation of Laboratory Animal Care (AAALAC) approved facilities at AbbVie Inc. in a temperature-regulated environment under a controlled 12-hour light-dark cycle, with lights on at 6:00 a.m. Food and water were available ad libitum at all times except during testing. All testing was done following procedures outlined in protocols approved by AbbVie Inc.'s Institutional Animal Care and Use Committee.

Another test has as its target human Nav1.8 (Homo sapiens (Human), UniProt Q9Y5Y9). Nature of the test: FRET-based membrane potential assay, recombinant human sodium channel Nav1.8. The format is cell-based. The following applies: HEK293 cells stably expressing recombinant human Nav1.8; depolarization with veratridine (EC80) + scorpion venom. An outline of the steps:
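HEK293 cells stably expressing Nav1.8 were loaded with CC2-DMPE/DiSBAC2(3) FRET voltage dyes. Compounds were added 3 min before depolarization with EC80 veratridine plus scorpion venom. The F440-480/F565-625 ratio was read on FLIPR; IC50 came from four-parameter Hill fits.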

Molecules are shown by their SMILES.

Sequence of human Nav1.7 (Q15858 whole entry): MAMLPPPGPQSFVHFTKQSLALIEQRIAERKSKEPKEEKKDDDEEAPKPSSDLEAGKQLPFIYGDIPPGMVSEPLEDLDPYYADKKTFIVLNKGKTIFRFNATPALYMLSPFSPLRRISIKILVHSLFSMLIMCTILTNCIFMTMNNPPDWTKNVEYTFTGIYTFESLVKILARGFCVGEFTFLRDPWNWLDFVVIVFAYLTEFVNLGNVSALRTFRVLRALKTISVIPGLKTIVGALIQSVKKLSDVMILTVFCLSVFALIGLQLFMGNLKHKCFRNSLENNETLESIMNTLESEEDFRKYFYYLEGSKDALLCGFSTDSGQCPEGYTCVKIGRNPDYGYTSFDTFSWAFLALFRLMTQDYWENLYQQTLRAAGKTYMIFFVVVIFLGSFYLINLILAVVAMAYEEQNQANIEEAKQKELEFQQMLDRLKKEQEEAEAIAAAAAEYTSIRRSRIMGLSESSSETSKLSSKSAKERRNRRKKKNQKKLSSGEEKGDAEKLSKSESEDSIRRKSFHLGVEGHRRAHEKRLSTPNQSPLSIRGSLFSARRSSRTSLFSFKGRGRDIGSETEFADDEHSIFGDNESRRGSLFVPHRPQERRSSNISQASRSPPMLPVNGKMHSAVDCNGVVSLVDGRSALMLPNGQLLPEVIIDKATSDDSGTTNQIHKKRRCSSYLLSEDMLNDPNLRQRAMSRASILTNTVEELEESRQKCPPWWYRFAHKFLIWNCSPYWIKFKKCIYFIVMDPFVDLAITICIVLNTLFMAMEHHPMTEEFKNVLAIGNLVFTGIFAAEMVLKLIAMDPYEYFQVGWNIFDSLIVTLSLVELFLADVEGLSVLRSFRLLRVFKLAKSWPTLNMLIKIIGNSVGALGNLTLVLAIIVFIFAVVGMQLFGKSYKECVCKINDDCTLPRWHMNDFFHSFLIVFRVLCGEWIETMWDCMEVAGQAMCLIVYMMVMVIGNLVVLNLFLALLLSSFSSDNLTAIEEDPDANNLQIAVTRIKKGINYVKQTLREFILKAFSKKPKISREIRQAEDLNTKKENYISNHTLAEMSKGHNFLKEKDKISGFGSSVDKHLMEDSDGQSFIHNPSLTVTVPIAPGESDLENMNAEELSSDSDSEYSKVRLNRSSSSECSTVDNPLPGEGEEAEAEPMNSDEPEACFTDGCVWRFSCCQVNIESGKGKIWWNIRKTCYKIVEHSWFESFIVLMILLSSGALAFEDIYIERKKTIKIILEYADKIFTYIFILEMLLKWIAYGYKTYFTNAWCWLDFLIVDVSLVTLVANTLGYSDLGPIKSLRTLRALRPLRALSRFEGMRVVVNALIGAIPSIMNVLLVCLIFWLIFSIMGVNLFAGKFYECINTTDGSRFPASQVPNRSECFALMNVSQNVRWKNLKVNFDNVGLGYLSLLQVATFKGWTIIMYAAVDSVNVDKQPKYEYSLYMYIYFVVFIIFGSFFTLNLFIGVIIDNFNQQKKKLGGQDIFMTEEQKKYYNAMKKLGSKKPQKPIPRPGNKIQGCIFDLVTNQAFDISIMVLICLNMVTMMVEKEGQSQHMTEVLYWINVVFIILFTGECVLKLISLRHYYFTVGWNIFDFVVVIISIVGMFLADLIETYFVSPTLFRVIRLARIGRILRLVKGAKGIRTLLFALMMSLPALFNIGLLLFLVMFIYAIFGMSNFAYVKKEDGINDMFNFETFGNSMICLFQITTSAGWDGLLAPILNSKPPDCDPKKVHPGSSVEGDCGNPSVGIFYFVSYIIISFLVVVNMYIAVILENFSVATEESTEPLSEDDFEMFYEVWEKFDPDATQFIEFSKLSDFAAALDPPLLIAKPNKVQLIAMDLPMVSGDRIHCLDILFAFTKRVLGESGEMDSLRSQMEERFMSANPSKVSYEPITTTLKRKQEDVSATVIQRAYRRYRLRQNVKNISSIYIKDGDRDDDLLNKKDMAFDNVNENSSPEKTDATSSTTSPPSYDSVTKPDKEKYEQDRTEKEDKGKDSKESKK
Sequence of human Nav1.8 (Q9Y5Y9 whole entry): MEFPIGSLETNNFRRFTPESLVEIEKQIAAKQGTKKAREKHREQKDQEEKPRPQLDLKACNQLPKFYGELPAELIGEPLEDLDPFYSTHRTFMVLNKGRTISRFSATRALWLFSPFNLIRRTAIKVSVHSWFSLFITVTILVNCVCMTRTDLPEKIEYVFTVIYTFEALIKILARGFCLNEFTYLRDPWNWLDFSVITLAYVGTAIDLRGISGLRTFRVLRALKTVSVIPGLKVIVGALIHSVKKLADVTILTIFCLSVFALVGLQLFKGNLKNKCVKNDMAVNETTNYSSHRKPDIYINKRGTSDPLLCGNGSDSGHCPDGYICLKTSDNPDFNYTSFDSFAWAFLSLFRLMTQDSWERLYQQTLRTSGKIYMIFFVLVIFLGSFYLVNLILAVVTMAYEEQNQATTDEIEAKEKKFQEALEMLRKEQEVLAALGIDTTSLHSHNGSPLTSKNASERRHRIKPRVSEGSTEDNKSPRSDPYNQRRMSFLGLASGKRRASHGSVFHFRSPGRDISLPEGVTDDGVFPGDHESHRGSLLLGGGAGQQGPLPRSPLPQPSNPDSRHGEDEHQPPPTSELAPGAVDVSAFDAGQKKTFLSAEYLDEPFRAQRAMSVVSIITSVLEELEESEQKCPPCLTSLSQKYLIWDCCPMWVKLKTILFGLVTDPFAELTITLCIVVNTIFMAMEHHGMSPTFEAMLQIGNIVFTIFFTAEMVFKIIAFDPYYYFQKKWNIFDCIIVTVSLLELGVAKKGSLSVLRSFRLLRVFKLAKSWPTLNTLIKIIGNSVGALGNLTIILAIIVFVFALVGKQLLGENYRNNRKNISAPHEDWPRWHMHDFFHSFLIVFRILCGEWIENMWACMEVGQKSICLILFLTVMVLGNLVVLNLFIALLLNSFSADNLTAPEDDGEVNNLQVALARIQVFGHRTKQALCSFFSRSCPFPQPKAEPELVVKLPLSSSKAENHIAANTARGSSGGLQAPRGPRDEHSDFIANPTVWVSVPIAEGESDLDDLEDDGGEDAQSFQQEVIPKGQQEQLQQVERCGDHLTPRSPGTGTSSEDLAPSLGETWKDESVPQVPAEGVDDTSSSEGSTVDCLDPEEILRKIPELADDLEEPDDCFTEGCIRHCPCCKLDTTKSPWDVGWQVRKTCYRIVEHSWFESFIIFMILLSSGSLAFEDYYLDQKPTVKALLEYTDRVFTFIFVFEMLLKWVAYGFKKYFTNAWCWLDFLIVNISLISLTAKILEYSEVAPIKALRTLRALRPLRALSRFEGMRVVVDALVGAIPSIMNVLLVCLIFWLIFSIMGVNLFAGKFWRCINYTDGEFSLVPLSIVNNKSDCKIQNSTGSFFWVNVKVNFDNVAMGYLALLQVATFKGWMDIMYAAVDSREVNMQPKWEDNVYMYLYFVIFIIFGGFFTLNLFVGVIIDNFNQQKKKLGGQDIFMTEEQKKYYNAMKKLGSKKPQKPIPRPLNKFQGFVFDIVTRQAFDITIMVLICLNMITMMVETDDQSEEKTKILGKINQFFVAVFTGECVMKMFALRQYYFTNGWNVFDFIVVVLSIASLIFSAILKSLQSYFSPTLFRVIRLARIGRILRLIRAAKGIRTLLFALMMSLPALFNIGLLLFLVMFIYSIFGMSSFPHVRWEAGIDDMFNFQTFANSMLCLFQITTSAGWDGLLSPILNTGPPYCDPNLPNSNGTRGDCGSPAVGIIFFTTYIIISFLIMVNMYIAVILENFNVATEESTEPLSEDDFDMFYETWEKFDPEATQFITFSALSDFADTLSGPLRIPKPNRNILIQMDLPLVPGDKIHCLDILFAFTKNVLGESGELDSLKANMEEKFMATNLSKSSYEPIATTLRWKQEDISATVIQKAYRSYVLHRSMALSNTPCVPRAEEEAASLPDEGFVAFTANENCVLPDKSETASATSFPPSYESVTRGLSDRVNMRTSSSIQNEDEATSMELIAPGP

`O=C1N(Cc2nc(C(F)(F)F)cs2)CCN1c1cccc2c1cnn2-c1ccccc1F` [Example 14, 1-[1-(2-fluorophenyl)-1H-indazol-4-yl]-3-{[4-(trifluoromethyl)-1,3-thiazol-2-yl]methyl}imidazolidin-2-one]: the IC50 on human Nav1.7 was found to be 618 nM. For the same compound, the “OA MPE (%)” value in test [1] (OA dose 30 mg/kg) is recorded as 60%.
As to `O=C1N(c2ncccn2)CCN1c1cccc2c1cnn2-c1ccccc1F` [Example 28, 1-[1-(2-fluorophenyl)-1H-indazol-4-yl]-3-(pyrimidin-2-yl)imidazolidin-2-one], the IC50 on human Nav1.7 was 457 nM. Besides, in test [1] (OA dose 10 mg/kg), the “OA MPE (%)” value is 62%.
For the compound `O=C(CN1CCN(c2cccc3c2cnn3-c2ccccc2F)C1=O)NC1CC1` [Example 13, N-cyclopropyl-2-{3-[1-(2-fluorophenyl)-1H-indazol-4-yl]-2-oxoimidazolidin-1-yl}acetamide], the “OA MPE (%)” value in test [1] (OA dose 30 mg/kg) is 47%.
On to `O=C1N(c2ccncc2)CCN1c1cccc2c1cnn2-c1ccccc1F` [Example 20, 1-[1-(2-fluorophenyl)-1H-indazol-4-yl]-3-(pyridin-4-yl)imidazolidin-2-one], for which the “OA MPE (%)” value in test [1] (OA dose 10 mg/kg) was 91%.
Regarding `O=C(CN1CCN(c2cccc3c2cnn3-c2ccccc2F)C1=O)N[C@@H]1CCC[C@H]1OCc1ccccc1` [Example 335, N-[(1R,2R)-2-(benzyloxy)cyclopentyl]-2-{3-[1-(2-fluorophenyl)-1H-indazol-4-yl]-2-oxoimidazolidin-1-yl}acetamide], the half-maximal inhibitory concentration (IC50) on human Nav1.8 was determined as 501 nM; at human Nav1.7, 1110 nM.
The like results for `O=C(CN1CCN(c2cccc3c2cnn3-c2ccccc2F)C1=O)NCC1CCOC1` (stereo not shown) [Example 75, 2-{3-[1-(2-fluorophenyl)-1H-indazol-4-yl]-2-oxoimidazolidin-1-yl}-N-(tetrahydrofuran-3-ylmethyl)acetamide] were, in that order, 12100 nM and 7490 nM.
For the compound `O=C(CN1CCN(c2cccc3c2cnn3-c2ccccc2F)C1=O)NC1CCC1` [Example 322, N-cyclobutyl-2-{3-[1-(2-fluorophenyl)-1H-indazol-4-yl]-2-oxoimidazolidin-1-yl}acetamide], the half-maximal inhibitory concentration (IC50) on human Nav1.8 is 1890 nM; at human Nav1.7, 973 nM.
The like results for `O=C(CN1CCN(c2cccc3c2cnn3-c2cccc(OC(F)(F)F)c2)C1=O)N1CC[C@H](F)C1` [Example 88, 1-{2-[(3S)-3-fluoropyrrolidin-1-yl]-2-oxoethyl}-3-{1-[3-(trifluoromethoxy)phenyl]-1H-indazol-4-yl}imidazolidin-2-one] were, in that order, 1370 nM and 351 nM.
For the compound `CC(C)O[C@H]1CCCC[C@@H]1N1CCN(c2cccc3c2cnn3-c2ccccc2F)C1=O` [Example 331, 1-[1-(2-fluorophenyl)-1H-indazol-4-yl]-3-[(1S,2S)-2-isopropoxycyclohexyl]imidazolidin-2-one], the results for the concentration for half-maximal inhibition (IC50) on human Nav1.8 and at human Nav1.7 were 3650 nM and 1440 nM, respectively.
The like results for `O=C1C[C@H]2CC[C@@H](C1)N2C(=O)CN1CCN(c2cccc3c2cnn3-c2ccccc2F)C1=O` [Example 311, (1R,5S)-8-({3-[1-(2-fluorophenyl)-1H-indazol-4-yl]-2-oxoimidazolidin-1-yl}acetyl)-8-azabicyclo[3.2.1]octan-3-one] were, in that order, 4350 nM and 5850 nM.
The like results for `O=C(CCN1CCN(c2cccc3c2cnn3-c2ccccc2F)C1=O)N1CC[C@H](F)C1` [Example 292, 1-[1-(2-fluorophenyl)-1H-indazol-4-yl]-3-{3-[(3S)-3-fluoropyrrolidin-1-yl]-3-oxopropyl}imidazolidin-2-one] were, in that order, 4440 nM and 2960 nM.
The corresponding values for `O=C(CN1CCN(c2cccc3c2cnn3-c2ccccc2F)C1=O)N1CC(F)C1` [Example 298, 1-[2-(3-fluoroazetidin-1-yl)-2-oxoethyl]-3-[1-(2-fluorophenyl)-1H-indazol-4-yl]imidazolidin-2-one] are 1520 nM and 3370 nM.
As for `O=C1N(c2cccc3c2cnn3-c2ccccc2F)CCN1C1CN(S(=O)(=O)CC2CC2(Cl)Cl)C1` (stereo not shown) [Example 282, 1-(1-{[(2,2-dichlorocyclopropyl)methyl]sulfonyl}azetidin-3-yl)-3-[1-(2-fluorophenyl)-1H-indazol-4-yl]imidazolidin-2-one], the results for the concentration for half-maximal inhibition (IC50) at human Nav1.8 and on human Nav1.7 were 1410 nM and 2490 nM, respectively.
With `O=C1CCCN(C(=O)CN2CCN(c3cccc4c3cnn4-c3ccccc3F)C2=O)CC1` [Example 313, 1-({3-[1-(2-fluorophenyl)-1H-indazol-4-yl]-2-oxoimidazolidin-1-yl}acetyl)azepan-4-one], the concentration for half-maximal inhibition (IC50) at human Nav1.8 was 3250 nM; on human Nav1.7, 2720 nM.
For `O=C(CN1CCN(c2cccc3c2cnn3-c2ccccc2F)C1=O)N1C[C@H]2CC[C@@H](C1)O2` [Example 301, 1-[1-(2-fluorophenyl)-1H-indazol-4-yl]-3-{2-[(1R,5S)-8-oxa-3-azabicyclo[3.2.1]oct-3-yl]-2-oxoethyl}imidazolidin-2-one], the concentration for half-maximal inhibition (IC50) amounted to 1560 nM at human Nav1.8 and 3160 nM at human Nav1.7.
In the case of `O=C(CN1CCN(c2cccc3c2cnn3-c2ccccc2F)C1=O)N1CCC(C(F)(F)F)CC1` [Example 299, 1-[1-(2-fluorophenyl)-1H-indazol-4-yl]-3-{2-oxo-2-[4-(trifluoromethyl)piperidin-1-yl]ethyl}imidazolidin-2-one], the IC50 came out at 398 nM on human Nav1.8 and 950 nM at human Nav1.7.
The like results for `CCNC(=O)CN1CCN(c2cccc3c2cnn3-c2ccccc2F)C1=O` [Example 315, N-ethyl-2-{3-[1-(2-fluorophenyl)-1H-indazol-4-yl]-2-oxoimidazolidin-1-yl}acetamide] were, in that order, 3560 nM and 2960 nM.
As to `O=C(CN1CCN(c2cccc3c2cnn3-c2ccccc2F)C1=O)N1CCCC(C(F)(F)F)C1` (stereo not shown) [Example 300, 1-[1-(2-fluorophenyl)-1H-indazol-4-yl]-3-{2-oxo-2-[3-(trifluoromethyl)piperidin-1-yl]ethyl}imidazolidin-2-one], the 50% inhibitory concentration (IC50) on human Nav1.8 came out at 1060 nM; on human Nav1.7 it was 3110 nM.
The like results for `O=C(CN1CCN(c2cccc3c2cnn3-c2ccccc2F)C1=O)N1CC2(COC2)C1` [Example 100, 1-[1-(2-fluorophenyl)-1H-indazol-4-yl]-3-[2-(2-oxa-6-azaspiro[3.3]hept-6-yl)-2-oxoethyl]imidazolidin-2-one] were, in that order, 20000 nM and 5010 nM.
Regarding `Cc1cncc(CN2CCN(c3cccc4c3cnn4-c3ccccc3F)C2=O)n1` [Example 42, 1-[1-(2-fluorophenyl)-1H-indazol-4-yl]-3-[(6-methylpyrazin-2-yl)methyl]imidazolidin-2-one], the “OA MPE (%)” value in test [1] (OA dose 10 mg/kg) is given as 35%.
`O=C(CN1CCN(c2cccc3c2cnn3-c2ccccc2F)C1=O)N1CCCC(F)C1` (stereo not shown) [Example 17, 1-[1-(2-fluorophenyl)-1H-indazol-4-yl]-3-[2-(3-fluoropiperidin-1-yl)-2-oxoethyl]imidazolidin-2-one]: the “OA MPE (%)” value in test [1] (OA dose 30 mg/kg) is on record as 91%.
On to `CC(C)CS(=O)(=O)N1CC(N2CCN(c3cccc4c3cnn4-c3ccccc3F)C2=O)C1` [Example 285, 1-[1-(2-fluorophenyl)-1H-indazol-4-yl]-3-[1-(isobutylsulfonyl)azetidin-3-yl]imidazolidin-2-one], for which the values for the IC50 at human Nav1.8 and at human Nav1.7 were 1470 nM and 2520 nM, respectively.
The corresponding values for `O=C(CCN1CCN(c2cccc3c2cnn3-c2ccccc2F)C1=O)N1CCC[C@@H](F)C1` [Example 317, 1-[1-(2-fluorophenyl)-1H-indazol-4-yl]-3-{3-[(3R)-3-fluoropiperidin-1-yl]-3-oxopropyl}imidazolidin-2-one] are 1280 nM and 2440 nM.
Take `O=C(CN1CCN(c2cccc3c2cnn3-c2ccccc2F)C1=O)N1CCC[C@H](F)C1` [Example 54, 1-[1-(2-fluorophenyl)-1H-indazol-4-yl]-3-{2-[(3S)-3-fluoropiperidin-1-yl]-2-oxoethyl}imidazolidin-2-one]: in test [1] (OA dose 30 mg/kg), the “OA MPE (%)” value was determined as 57%.

For orientation: IC50 means the concentration that inhibits the measured activity by half.
